Broadly, the melting point is the temperature, or range, at which the solid turns liquid.

Experimental findings from US20240300932A1, “N-PHENYLIMINE DERIVATIVE AND PREPARATION METHOD AND USE THEREOF” (Guizhou University, priority 2023, published 2024) are described below.

The subject of one series is Abutilon theophrasti. The series can be described thus: Post-emergence herbicidal activity test (stem and leaf spray, pot culture). To be noted: 3 weeks after spraying. The series is classed as in vivo. The method in brief:
(§1)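 Pot-grown weeds in loam (pH 7, 1.63% organic matter) were spray-treated on stems and leaves at the 2- to 3-leaf stage with compound in acetone/Tween 80 plus 1.5 liters/ha methyl oleate at 10, 5 or 2.5 g/mu. Fresh-weight growth control was scored 3 weeks later as grades 0–5.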

The subject of another series is Amaranthus retroflexus. The description is as above. The format is in vivo. To be noted: 3 weeks after spraying. The method, boiled down:
as §1

The subject of a further series is Echinochloa crusgalli. The series is described as above. The series is classed as in vivo. As to conditions: 3 weeks after spraying. The method in brief: as §1
The subject of a further series is Portulaca oleracea. Described as above. As to conditions: 3 weeks after spraying. The format is in vivo. The method in brief: as §1
Another series concerns Setaria viridis. Described as above. The format is in vivo. To be noted: 3 weeks after spraying. The method in brief:
as §1

A further series concerns Trifoliumre pensL. Briefly: Post-emergence herbicidal activity test (stem and leaf spray, pot culture). The format is in vivo. As to conditions: 3 weeks after spraying. The method in brief:
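Rates of 10, 5 and 2.5 g/mu were applied in a single spray-tower treatment to 2–3-leaf plants, thinned to 10 per pot. Formulation: acetone solution, Tween 80, 1.5 L/ha methyl oleate synergist. Weed response assessed after 3 further greenhouse weeks; mean of three experiments.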

Molecules are shown by their SMILES.

`Cc1ccc(C(=O)COc2ccc(N3C(=O)C4=C(CCCC4)C3=O)c(F)c2)cc1` [Compound C15, 2-(2-fluoro-4-(2-oxo-2-(4-tolyl)ethoxy)phenyl)-4,5,6,7-tetrahydro-1H-isoindole-1,3(2H)-dione] gave a melting point of 144 to 146 °C. In addition, the “Post-emergence herbicidal activity, A. theophrasti (grade)” value in the series on Abutilon theophrasti (dosage 2.5 g/mu) was 5 (Grade 5: the growth control rate is greater than or equal to 85%). In addition, the “Post-emergence herbicidal activity, A. theophrasti (grade)” value in the series on Abutilon theophrasti (dosage 5 g/mu) is given as 5 (Grade 5: the growth control rate is greater than or equal to 85%). In the series with Abutilon theophrasti (dosage 10 g/mu), the “Post-emergence herbicidal activity, A. theophrasti (grade)” value was 5 (Grade 5: the growth control rate is greater than or equal to 85%). The “Post-emergence herbicidal activity, A. retroflexus (grade)” value in the series on Amaranthus retroflexus (dosage 2.5 g/mu) is given as 5 (Grade 5: the growth control rate is greater than or equal to 85%). Moreover, the “Post-emergence herbicidal activity, A. retroflexus (grade)” value in the series with Amaranthus retroflexus (dosage 5 g/mu) is 5 (Grade 5: the growth control rate is greater than or equal to 85%). Also, the “Post-emergence herbicidal activity, A. retroflexus (grade)” value in the series with Amaranthus retroflexus (dosage 10 g/mu) is reported as 5 (Grade 5: the growth control rate is greater than or equal to 85%). Also, the “Post-emergence herbicidal activity, E. crusgalli (grade)” value in the series on Echinochloa crusgalli (dosage 2.5 g/mu) is 1 (Grade 1: the growth control rate is greater than or equal to 5% and less than 20%). For the same molecule, the “Post-emergence herbicidal activity, E. crusgalli (grade)” value with Echinochloa crusgalli (dosage 5 g/mu) is 2 (Grade 2: the growth control rate is greater than or equal to 20% and less than 40%). In addition, the “Post-emergence herbicidal activity, E. crusgalli (grade)” value in the series with Echinochloa crusgalli (dosage 10 g/mu) is 3 (Grade 3: the growth control rate is greater than or equal to 40% and less than 60%). Moreover, the “Post-emergence herbicidal activity, P. oleracea (grade)” value in the series on Portulaca oleracea (dosage 2.5 g/mu) is on record as 5 (Grade 5: the growth control rate is greater than or equal to 85%). In the series with Portulaca oleracea (dosage 5 g/mu), the “Post-emergence herbicidal activity, P. oleracea (grade)” value is reported as 5 (Grade 5: the growth control rate is greater than or equal to 85%). Moreover, in the series on Portulaca oleracea (dosage 10 g/mu), the “Post-emergence herbicidal activity, P. oleracea (grade)” value is 5 (Grade 5: the growth control rate is greater than or equal to 85%). Further, the “Post-emergence herbicidal activity, S. viridis (grade)” value in the series on Setaria viridis (dosage 2.5 g/mu) is 2 (Grade 2: the growth control rate is greater than or equal to 20% and less than 40%). In addition, the “Post-emergence herbicidal activity, S. viridis (grade)” value in the series with Setaria viridis (dosage 5 g/mu) was 3 (Grade 3: the growth control rate is greater than or equal to 40% and less than 60%). For the same molecule, the “Post-emergence herbicidal activity, S. viridis (grade)” value in the series with Setaria viridis (dosage 10 g/mu) is 4 (Grade 4: the growth control rate is greater than or equal to 60% and less than 85%). Further, the “Post-emergence herbicidal activity, Trifoliumre pensL. (grade)” value in the series with Trifoliumre pensL. (dosage 2.5 g/mu) is 5 (Grade 5: the growth control rate is greater than or equal to 85%). Moreover, the “Post-emergence herbicidal activity, Trifoliumre pensL. (grade)” value with Trifoliumre pensL. (dosage 5 g/mu) is listed as 5 (Grade 5: the growth control rate is greater than or equal to 85%). For the same molecule, in the series on Trifoliumre pensL. (dosage 10 g/mu), the “Post-emergence herbicidal activity, Trifoliumre pensL. (grade)” value is given as 5 (Grade 5: the growth control rate is greater than or equal to 85%).
`CC(=O)Nc1cc(N2C(=O)C3=C(CCCC3)C2=O)c(F)cc1Cl` [Compound D1, N-(2-chloro-5-(1,3-dioxo-1,3,4,5,6,7-hexahydro-2H-isoindole-2-yl)-4-fluorophenyl)acetamide] came in with a melting point of 155 to 157 °C. Also, the “Post-emergence herbicidal activity, A. theophrasti (grade)” value in the series on Abutilon theophrasti (dosage 10 g/mu) is given as 5 (Grade 5: the growth control rate is greater than or equal to 85%). The “Post-emergence herbicidal activity, A. retroflexus (grade)” value in the series on Amaranthus retroflexus (dosage 10 g/mu) is on record as 5 (Grade 5: the growth control rate is greater than or equal to 85%). Moreover, the “Post-emergence herbicidal activity, E. crusgalli (grade)” value in the series on Echinochloa crusgalli (dosage 10 g/mu) was 3 (Grade 3: the growth control rate is greater than or equal to 40% and less than 60%). Besides, in the series on Portulaca oleracea (dosage 10 g/mu), the “Post-emergence herbicidal activity, P. oleracea (grade)” value was 5 (Grade 5: the growth control rate is greater than or equal to 85%). Also, the “Post-emergence herbicidal activity, S. viridis (grade)” value in the series with Setaria viridis (dosage 10 g/mu) was 4 (Grade 4: the growth control rate is greater than or equal to 60% and less than 85%). Besides, the “Post-emergence herbicidal activity, Trifoliumre pensL. (grade)” value with Trifoliumre pensL. (dosage 10 g/mu) is reported as 5 (Grade 5: the growth control rate is greater than or equal to 85%).
For the molecule `C/C=C/C(=O)Nc1cc(N2C(=O)C3=C(CCCC3)C2=O)c(F)cc1Cl` [Compound D5, (E)-N-(2-chloro-5-(1,3-dioxo-1,3,4,5,6,7-hexahydro-2H-isoindole-2-yl)-4-fluorophenyl)but-2-enamide], the melting point fell in the range of 133 to 138 °C. In addition, the “Post-emergence herbicidal activity, A. theophrasti (grade)” value in the series with Abutilon theophrasti (dosage 10 g/mu) was 5 (Grade 5: the growth control rate is greater than or equal to 85%). The “Post-emergence herbicidal activity, A. retroflexus (grade)” value with Amaranthus retroflexus (dosage 10 g/mu) is 5 (Grade 5: the growth control rate is greater than or equal to 85%). Further, the “Post-emergence herbicidal activity, E. crusgalli (grade)” value in the series on Echinochloa crusgalli (dosage 10 g/mu) is 3 (Grade 3: the growth control rate is greater than or equal to 40% and less than 60%). Moreover, in the series with Portulaca oleracea (dosage 10 g/mu), the “Post-emergence herbicidal activity, P. oleracea (grade)” value is 5 (Grade 5: the growth control rate is greater than or equal to 85%). Besides, in the series on Setaria viridis (dosage 10 g/mu), the “Post-emergence herbicidal activity, S. viridis (grade)” value is 4 (Grade 4: the growth control rate is greater than or equal to 60% and less than 85%). For the same molecule, the “Post-emergence herbicidal activity, Trifoliumre pensL. (grade)” value with Trifoliumre pensL. (dosage 10 g/mu) is 5 (Grade 5: the growth control rate is greater than or equal to 85%).
Turning to `O=C(Nc1cc(N2C(=O)C3=C(CCCC3)C2=O)c(F)cc1Cl)C1CC1` [Compound D8, N-(2-chloro-5-(1,3-dioxo-1,3,4,5,6,7-hexahydro-2H-isoindole-2-yl)-4-fluorophenyl)cyclopropanecarboxamide], the melting point was in the range of 208 to 210 °C. Moreover, the “Post-emergence herbicidal activity, A. theophrasti (grade)” value in the series on Abutilon theophrasti (dosage 10 g/mu) is 5 (Grade 5: the growth control rate is greater than or equal to 85%). In addition, the “Post-emergence herbicidal activity, A. retroflexus (grade)” value in the series on Amaranthus retroflexus (dosage 10 g/mu) is reported as 5 (Grade 5: the growth control rate is greater than or equal to 85%). In addition, in the series on Echinochloa crusgalli (dosage 10 g/mu), the “Post-emergence herbicidal activity, E. crusgalli (grade)” value is 3 (Grade 3: the growth control rate is greater than or equal to 40% and less than 60%). The “Post-emergence herbicidal activity, P. oleracea (grade)” value in the series with Portulaca oleracea (dosage 10 g/mu) is recorded as 5 (Grade 5: the growth control rate is greater than or equal to 85%). In the series with Setaria viridis (dosage 10 g/mu), the “Post-emergence herbicidal activity, S. viridis (grade)” value was 3 (Grade 3: the growth control rate is greater than or equal to 40% and less than 60%). The “Post-emergence herbicidal activity, Trifoliumre pensL. (grade)” value in the series on Trifoliumre pensL. (dosage 10 g/mu) was 5 (Grade 5: the growth control rate is greater than or equal to 85%).
As for `O=C(Nc1cc(N2C(=O)C3=C(CCCC3)C2=O)c(F)cc1Cl)C1CCC1` [Compound D9, N-(2-chloro-5-(1,3-dioxo-1,3,4,5,6,7-hexahydro-2H-isoindole-2-yl)-4-fluorophenyl)cyclobutanecarboxamide], the melting point lay in the range of 145 to 147 °C. In addition, in the series on Abutilon theophrasti (dosage 10 g/mu), the “Post-emergence herbicidal activity, A. theophrasti (grade)” value is 5 (Grade 5: the growth control rate is greater than or equal to 85%). Further, the “Post-emergence herbicidal activity, A. retroflexus (grade)” value in the series with Amaranthus retroflexus (dosage 10 g/mu) is reported as 5 (Grade 5: the growth control rate is greater than or equal to 85%). Besides, in the series on Echinochloa crusgalli (dosage 10 g/mu), the “Post-emergence herbicidal activity, E. crusgalli (grade)” value was 3 (Grade 3: the growth control rate is greater than or equal to 40% and less than 60%). Further, the “Post-emergence herbicidal activity, P. oleracea (grade)” value in the series with Portulaca oleracea (dosage 10 g/mu) was 5 (Grade 5: the growth control rate is greater than or equal to 85%). Besides, the “Post-emergence herbicidal activity, S. viridis (grade)” value in the series with Setaria viridis (dosage 10 g/mu) was 3 (Grade 3: the growth control rate is greater than or equal to 40% and less than 60%). Besides, the “Post-emergence herbicidal activity, Trifoliumre pensL. (grade)” value in the series on Trifoliumre pensL. (dosage 10 g/mu) is listed as 5 (Grade 5: the growth control rate is greater than or equal to 85%).
In the case of `O=C(Nc1cc(N2C(=O)C3=C(CCCC3)C2=O)c(F)cc1Cl)C1CCCCC1` [Compound D10, N-(2-chloro-5-(1,3-dioxo-1,3,4,5,6,7-hexahydro-2H-isoindole-2-yl)-4-fluorophenyl)cyclohexanecarboxamide], the melting point lay in the range of 93 to 97 °C. Moreover, the “Post-emergence herbicidal activity, A. theophrasti (grade)” value in the series with Abutilon theophrasti (dosage 10 g/mu) is on record as 5 (Grade 5: the growth control rate is greater than or equal to 85%). In the series with Amaranthus retroflexus (dosage 10 g/mu), the “Post-emergence herbicidal activity, A. retroflexus (grade)” value is 5 (Grade 5: the growth control rate is greater than or equal to 85%). Moreover, in the series on Echinochloa crusgalli (dosage 10 g/mu), the “Post-emergence herbicidal activity, E. crusgalli (grade)” value is 3 (Grade 3: the growth control rate is greater than or equal to 40% and less than 60%). Also, the “Post-emergence herbicidal activity, P. oleracea (grade)” value in the series with Portulaca oleracea (dosage 10 g/mu) is on record as 5 (Grade 5: the growth control rate is greater than or equal to 85%). Further, the “Post-emergence herbicidal activity, S. viridis (grade)” value in the series on Setaria viridis (dosage 10 g/mu) was 4 (Grade 4: the growth control rate is greater than or equal to 60% and less than 85%). Further, the “Post-emergence herbicidal activity, Trifoliumre pensL. (grade)” value with Trifoliumre pensL. (dosage 10 g/mu) is on record as 5 (Grade 5: the growth control rate is greater than or equal to 85%).
`O=C(COC(=O)c1cc(N2C(=O)C3=C(CCCC3)C2=O)c(F)cc1Cl)c1ccc(Cl)cc1` [Compound E1, 2-(4-chlorophenyl)-2-oxoethyl-2-chloro-5-(1,3-dioxo-1,3,4,5,6,7-hexahydro-2H-isoindole-2-yl)-4-fluorobenzoate]: the melting point was 138 to 141 °C. Further, the “Post-emergence herbicidal activity, A. theophrasti (grade)” value with Abutilon theophrasti (dosage 10 g/mu) was 5 (Grade 5: the growth control rate is greater than or equal to 85%). Besides, the “Post-emergence herbicidal activity, A. retroflexus (grade)” value with Amaranthus retroflexus (dosage 10 g/mu) is on record as 5 (Grade 5: the growth control rate is greater than or equal to 85%). Further, the “Post-emergence herbicidal activity, E. crusgalli (grade)” value in the series on Echinochloa crusgalli (dosage 10 g/mu) was 3 (Grade 3: the growth control rate is greater than or equal to 40% and less than 60%). Further, in the series with Portulaca oleracea (dosage 10 g/mu), the “Post-emergence herbicidal activity, P. oleracea (grade)” value is 5 (Grade 5: the growth control rate is greater than or equal to 85%). In addition, the “Post-emergence herbicidal activity, S. viridis (grade)” value with Setaria viridis (dosage 10 g/mu) was 4 (Grade 4: the growth control rate is greater than or equal to 60% and less than 85%). Moreover, in the series with Trifoliumre pensL. (dosage 10 g/mu), the “Post-emergence herbicidal activity, Trifoliumre pensL. (grade)” value was 5 (Grade 5: the growth control rate is greater than or equal to 85%).
